{"source": "paper PMC10288505", "about": "“Photoswitchable Calixarene Activators for Controlled Peptide Transport across Lipid Membranes” (Journal of the American Chemical Society, 2023)", "key": {"[1]": {"test_system": "HeLa cells", "assay": "Flow cytometry quantification of TAMRA-R8 uptake", "assay_type": "cell-based", "conditions": "TAMRA-R8 3 μM, activator 10-250 nM, 25 min, flow cytometry mean fluorescence intensity, quadruplicate", "protocol": "(§1) Success in artificial vesicle assays encouraged us to conduct transport experiments of fluorescently labeled peptides in living cells (Figure 5). We first employed confocal fluorescence microscopy to evaluate counterion activator 2 for the intracellular transport of a carboxytetramethylrhodamine-labeled R8 peptide (TAMRA-R8) into the cytosol of HeLa cells. Cationic peptides usually remain trapped inside the endosomes when incubated with cells at low μM concentrations.[32],[44] […] The cytometry experiments validated the E isomer selective transport and indicated a four-fold intracellular delivery enhancement (Figure 5C and Figure S52). […]\n(§2) Confocal microscopy assays. […] Fluorescence of Hoechst was excited with the 405 nm laser and the emission was detected at 450/50 nm; for the TAMRA fluorescence, an excitation of 561 nm was used while the emission was detected at 620/60 nm. […]\n(§3) Flow cytometry assays. […] TAMRA fluorescence was excited at 532 nm (green laser) and […]\nmeasured on a Guava easyCyte BG HT collecting the emission at 583/26 nm (Yellow-G channel), using InCyte v3.2 (GuavaSoft, Millipore). Cells with typical FSC and SSC parameters were selected and the mean fluorescence intensity was calculated for each sample. Each condition was measured in quadruplicate. […]"}, "[2]": {"test_system": "HeLa cells", "assay": "Confocal fluorescence microscopy of TAMRA-R8 cellular uptake", "assay_type": "cell-based", "conditions": "TAMRA-R8 3 μM with activator (10, 50, 100, 250 nM), 25 min at 37 °C", "protocol": "as §1\nFigure 5 (A) Schematic representation of oligoarginine intracellular delivery by both isomers of 2. (B) Confocal fluorescence microscopy images of the cellular uptake of 3 μM TAMRA-R8 (in red) facilitated by E-2/Z-2. […] (C) Fluorescence intensity of HeLa cells incubated with 3 μM TAMRA-R8 in the presence of different E-2/Z-2 concentrations, measured by flow cytometry. […]\nas §2, §3"}}}
{"smiles": "CCCCc1ccc(/N=N/c2ccc(OCCCOc3c4cc(S(=O)(=O)[O-])cc3Cc3cc(S(=O)(=O)[O-])cc(c3O)Cc3cc(S(=O)(=O)[O-])cc(c3O)Cc3cc(S(=O)(=O)[O-])cc(c3O)C4)cc2)cc1.[Li+].[Li+].[Li+].[Li+]", "note": "[E-2]", "values": [{"measurement": "Intracellular delivery enhancement of TAMRA-R8, E isomer relative to Z isomer", "setting": "[1]", "value": "four-fold"}, {"measurement": "Intracellular TAMRA-R8 fluorescence in the presence of activator", "setting": "[2]", "value": "strong diffuse fluorescence signal in the cytosol, nucleus, and nucleolus"}]}
